In BindingDB's records for doi:10.1038/nchembio.168 (University of New Mexico Health Sciences Center, 2009):

Molecular target: Estrogen receptor beta (Mus musculus, UniProt O08537)
Test: Binding affinity to ERbeta receptor in mouse COS7 cells by competitive binding assay

Estrogen receptor beta, sequence (O08537 whole entry): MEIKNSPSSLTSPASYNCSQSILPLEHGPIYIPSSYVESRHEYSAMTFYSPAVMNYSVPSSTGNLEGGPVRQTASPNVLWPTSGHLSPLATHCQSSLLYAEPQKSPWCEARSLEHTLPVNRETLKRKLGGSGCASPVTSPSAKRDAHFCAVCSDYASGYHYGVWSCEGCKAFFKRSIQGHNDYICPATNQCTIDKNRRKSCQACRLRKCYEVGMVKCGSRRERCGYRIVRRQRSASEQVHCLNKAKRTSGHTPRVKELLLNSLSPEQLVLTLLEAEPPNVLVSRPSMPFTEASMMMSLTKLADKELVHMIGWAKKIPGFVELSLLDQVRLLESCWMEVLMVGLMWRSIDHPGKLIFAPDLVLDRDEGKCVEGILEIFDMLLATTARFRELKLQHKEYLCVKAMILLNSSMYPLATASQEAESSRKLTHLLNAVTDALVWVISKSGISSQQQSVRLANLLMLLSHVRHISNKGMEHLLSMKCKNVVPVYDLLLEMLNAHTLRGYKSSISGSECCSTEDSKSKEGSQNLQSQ

Ki: > 10 µM
Compound: Brc1cc2c(cc1[C@@H]1Nc3ccccc3[C@@H]3C=CC[C@@H]31)OCO2
